Laboratory results from paper PMC10908709, “3-styrylcoumarin scaffold-based derivatives as a new approach for leishmaniasis intervention: biological and molecular modeling studies” (Journal of Parasitic Diseases: Official Organ of the Indian …, 2024).
Several values for one entry are separate records, joined by “and”; a condition that tells them apart may be missing. Equal values may be shown once.

Tests used:
[1] = tested on: axenic amastigote forms of L. panamensis; set-up: method as in Arango et al. 2010; conditions: ref Arango et al. 2010; cited from earlier work
[2] = tested on: intracellular amastigotes of L. (V) panamensis; assay: In vitro antileishmanial activity on intracellular amastigotes (GFP parasites, flow cytometry); type: cell-based, Leishmania (Viannia) panamensis; conditions: for inhibition at 20 µg/mL: U-937, 72 h, infected U-937 cells, read-out: Inhibition intracellular amastigotes growth (%)
[3] = tested on: intracellular amastigotes of L. (V) panamensis; assay: as above; type: cell-based, Leishmania (Viannia) panamensis; conditions: for EC50: read-out: Anti-leishmanial activity on intracellular amastigotes EC50 (converted); for SI (selectivity index = LC50/EC50): U-937 LC50 / amastigote EC50
Procedure: The activity of compounds was evaluated on intracellular amastigotes of L. (V) panamensis transfected with the green fluorescent protein gene (MHOM/CO/87/UA140-EGFP) (Pulido et al. [2012]). The effect of each compound was determined according to the inhibition of the infection evidenced by both, decrease of the infected cells and decrease of intracellular parasite amount. Briefly, U-937 human cells at a concentration of 3 × 10^5 cells/mL in RPMI 1640 containing 0.1 μg/mL of phorbol-12-myristate-13-acetate (PMA) were dispensed into each one of a 24-well cell culture plate and then infected with 5 day-old promastigotes in a 15:1 parasites per cell ratio. Plates were incubated at 34 °C, 5% CO2 during 3 h and cells were washed two times with PBS to eliminate non internalized parasites. One mL of fresh complete RPMI 1640 medium supplemented with 10% FBS and 1% antibiotics was added into each well, cells were incubated again to guarantee multiplication of intracellular parasites. After 24 h of infection, culture medium was replaced by fresh culture medium containing each compound at 50–6.12 and 1.56 μg/mL and plates were incubated at 37 °C, 5% CO2. After 72 h, inhibition of the infection was determined. For this, cells were removed from the bottom plate with a trypsin/EDTA (250 mg) solution; recovered cells were centrifuged at 1100 rpm during 10 min at 4 °C, the supernatant was discarded and cells were washed with 1 mL of cold PBS and centrifuged at 1100 rpm during 10 min at 4 °C. The supernatant was discarded and cells were suspended in 500 μL of PBS and analyzed by flow cytometry (FC 500MPL, Cytomics, Brea, CA, US). All determinations for each compound including standard drugs were carried out by triplicate, in two independent experiments. Activity of the tested compounds was carried out in parallel with infection progress in culture medium alone and in culture medium with amphotericin B as antileishmanial drugs (positive controls).
Antileishmanial activity was determined according to percentage of infected cells and parasite amount obtained for each experimental condition by flow cytometer. The percentage of infected cells was determined as the number of positive events by green fluorescence (parasites) in y-axis and Forward Scatte in x-axis. Then, the parasitic load in those infected cells was determined by a histogram of the mean fluorescence intensity (MFI) of those fluorescent parasites (Pulido et al. [2012]).
Parasitemia inhibition was calculated by Eq. 2, where the MFI of control corresponds to 100% of parasitemia. In turn, inhibition percentage corresponds to 100% Parasitemia.

[4] = In vitro cytotoxicity, MTT assay; type: cell-based; conditions: human
Procedure: (§1) Cytotoxic activity of the studied compounds was assessed in the human promonocytic U-937 cells (ATCC CRL-1593.2™) based on viability evaluated by the MTT (3-(4,5-dimethylthiazol-2-yl)-2,5-diphenyltetrazolium bromide) assay as described elsewhere (Taylor et al. [2011]). Briefly, U-937 cells grown in tissue flasks were harvested and washed with phosphate buffered saline (PBS) by centrifugation. Cells were counted and adjusted at 1 × 10^6 cells/mL of complete culture medium (RPMI-1640 supplemented with 10% Fetal Bovine Serum-FBS and 1% of antibiotics (100 ug/mL penicillin and 0.1 mg/mL streptomycin). One hundred µL of cell suspension were dispensed into each well of a 96-well cell-culture plate and then 100 µL of two-fold serial dilutions of the compounds (starting at 200 µg/mL) in complete RPMI 1640 medium were added. Plates were incubated at 37 °C, under 5% CO2 atmosphere during 72 h. Then, 10 µL of MTT solution (0.5 mg/mL) were added into each well, and plates were then incubated at 37 °C for 3 h. The formazan crystals were dissolved by adding 100 µL/well of dimethyl sulfoxide and 30 min incubation. Cell viability was determined according to the intensity of color (absorbance) registered as optical densities (O.D) obtained at 570 nm in a Varioskan™ Flash Multimode Reader-ThermoScientific, USA spectrophotometer. Cells cultured in absence of compounds were used as control of viability (negative control), while doxorrubicin was used as control for cytotoxic drugs. Non-specific absorbance was corrected by subtracting the O.D of the blank. Assays were conducted in two independent runs with three replicas per each concentration tested.
(§2) Cytotoxicity was determined according to cell growth (viability) and mortality percentages obtained for each isolated experiment (compounds, doxorubicin and culture medium). Results were expressed as 50 lethal concentrations (LC50), corresponding to the concentration necessary to eliminate 50% of cells, calculated by Probit analysis (Finney [1978]). Percentage of viability was calculated by Eq. 1, where the optical density (O.D) of control corresponds to 100% of viability (cell growth).1 %Mortality=1-O.D Exposed cells/O.D Control cells×100

CHO-K1 cells = tested on: CHO-K1 cells; set-up: method as in Herrera et al. 2018; conditions: previous study; ref Herrera et al. 2018; cited from earlier work
SW480 cells = tested on: SW480 cells; set-up: method as in Herrera et al. 2018; conditions: previous study; ref Herrera et al. 2018; cited from earlier work
[5] = tested on: promastigote forms of L. amazonensis; set-up: method as in Rosa et al. 2017; conditions: ref Rosa et al. 2017; read-out: IC50 against promastigote forms of L. amazonensis; cited from earlier work
[6] = tested on: amastigote forms of L. amazonensis; set-up: method as in Rosa et al. 2017; conditions: ref Rosa et al. 2017; read-out: IC50 against amastigote forms of L. amazonensis; cited from earlier work
[7] = tested on: intracellular amastigotes of L. donovani; set-up: method as in Pierson et al. 2010; conditions: ref Pierson et al. 2010; cited from earlier work
U-937 cells = assay: In vitro cytotoxicity, MTT assay; type: cell-based; conditions: 72 h, MTT
Procedure: as §1, §2

C=C(C)[C@H]1O[C@@H]1c1c(OC[C@H]2OC2(C)C)ccc2ccc(=O)oc12 (relative stereo) [B]
EC50 against axenic amastigote forms of L. panamensis [1]: 9.9 µg/mL

C[C@@H]1[C@H](O)[C@@H](C)/C=C/C=C/C=C/C=C/C=C/C=C/C=C/[C@H](O[C@@H]2O[C@H](C)[C@@H](O)[C@H](N)[C@@H]2O)C[C@@H]2O[C@](O)(C[C@@H](O)C[C@@H](O)[C@H](O)CC[C@@H](O)C[C@@H](O)CC(=O)O[C@H]1C)C[C@H](O)[C@H]2C(=O)O [Amphotericin B, reference compound]
inhibition of growth at 0.05 µg/mL ([2]; dose used 0.05 µg/ml, 72 h): 62.7 ± 1.4% | EC50 ([3]; 72 h, Probit): 0.05 µg/mL and 50 nM | SI (selectivity index = LC50/EC50) [3]: 722 | CC50 at 72 h [4]: 36.1 µg/mL and 39.1 µM

COc1ccc2ccc(=O)oc2c1-c1cocc1C [C]
EC50 against axenic amastigote forms of L. panamensis [1]: 10.5 µg/mL

CCCCCCCCOc1ccc2c(C)c(/C=C/c3ccc(OC)cc3)c(=O)oc2c1 [Compound 3]
inhibition at 20 µg/mL [2]: 0% | CC50 at 72 h [4]: > 200 µg/mL and > 549 µM

CCCCCCCCOc1ccc2c(C)c(/C=C/c3ccc(OC)c(OC)c3)c(=O)oc2c1 [Compound 4]
inhibition at 20 µg/mL [2]: 32.5 ± 0.8% | CC50 at 72 h [4]: 26 µg/mL and 66 µM

CCCCCCCCOc1ccc2c(C)c(/C=C/c3ccc(OC)cc3OC)c(=O)oc2c1 [Compound 5]
inhibition at 20 µg/mL [2]: 3.7 ± 0.8% | CC50 at 72 h [4]: > 200 µg/mL and > 507 µM

CCCCCCCCOc1ccc2c(C)c(/C=C/c3ccc(O)c(OC)c3)c(=O)oc2c1 [Compound 6]
IC50 (CHO-K1 cells): 69.8 µM | inhibition at 20 µg/mL [2]: > 83% | IC50 (SW480 cells): 26.1 µM | EC50 ([3]; 72 h, Probit): 15.4 µg/mL and 40.5 µM | SI (selectivity index = LC50/EC50) [3]: 1.2 | Inhibition intracellular amastigotes growth (%) ([3]; at 20 µg/ml, 72 h, infected U-937 cells): 83.5 ± 5.0% | IC50 ([3]; read-out: IC50 against L. (V.) panamensis amastigotes (abstract)): 40.5 µM | CC50 at 72 h [4]: 19.7 µg/mL and 51.8 µM

CCCCCCCCOc1ccc2c(C)c(/C=C/c3cc(OC)ccc3OC)c(=O)oc2c1 [Compound 7]
inhibition at 20 µg/mL [2]: 7.1 ± 1.5% | CC50 at 72 h [4]: > 200 µg/mL and > 507 µM

CCCCCCCCOc1ccc2c(C)c(/C=C/c3cc(OC)c(O)c(OC)c3)c(=O)oc2c1 [Compound 8]
inhibition of growth at 1 µg/mL ([2]; dose used 1.0 µg/ml, 72 h): 0% | CC50 at 72 h [4]: 1 µg/mL and 2.4 µM

CCCCCCCCOc1ccc2c(C)c(/C=C/c3ccc4c(c3)OCO4)c(=O)oc2c1 [Compound 9]
inhibition at 20 µg/mL [2]: 0% | CC50 at 72 h [4]: > 200 µg/mL and > 529 µM

C=C(C)C1OC1c1c(OC)ccc2ccc(=O)oc12 (centres unmarked) [D]
EC50 against axenic amastigote forms of L. panamensis [1]: 14.1 µg/mL

CC(=O)OC[C@H]1O[C@@H](Oc2ccc3c(-c4ccccc4)cc(=O)oc3c2)[C@H](OC(C)=O)[C@@H](OC(C)=O)[C@@H]1OC(C)=O [E]
IC50 [5]: 10 µM | IC50 [6]: 34.9 µM

COc1ccc(-c2cc(=O)oc3cc(OC)c(OC)cc23)cc1OC [F]
IC50 [7]: 1.1 µM

Meglumine antimoniate
Inhibition intracellular amastigotes growth (%) ([3]; 72 h): 79.4 ± 2.1^ g % | Anti-leishmanial activity on intracellular amastigotes EC50 ([3]; 72 h, Probit): 9.4 ± 2.1 µg/mL | EC50 ([3]; 72 h, Probit): 25.7 µM | Cytotoxicity on U-937 cells LC50 (U-937 cells): 416.4 ± 66.6 µg/mL | CC50 (U-937 cells; read-out: Cytotoxicity on U-937 cells LC50 (converted)): 1140 µM
